Test results reported in ChEMBL document CHEMBL1201862, “PubChem BioAssay data set” (2004).
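All cell lines were grown in 96-well plates and treated with compound for 48 hours. Abbreviation: GI50, concentration required for 50% inhibition of growth.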 Calls of active or inactive are those of the source. Cut-off read from the data, not from the text of the source: active = GI50 up to about 1.1 µM and inactive = higher.

Key:
Assay in all cases: DTP human tumour cell line panel, 48 h
[1] = system: NCI/ADR-RES
[2] = system: RPMI-8226
[3] = system: OVCAR-4
[4] = system: SF-539
[5] = system: HCT-15
[6] = system: NCI-H460
[7] = system: SR
[8] = system: HOP-62
[9] = system: HL-60
[10] = system: K562
[11] = system: OVCAR-8
[12] = system: U-251
[13] = system: PC-3
[14] = system: OVCAR-3
[15] = system: SK-MEL-2
[16] = system: A549
[17] = system: HCC 2998
[18] = system: HCT-116
[19] = system: MDA-MB-231
[20] = system: SNB-19
[21] = system: RXF 393
[22] = system: SF-268
[23] = system: BT-549
[24] = system: UACC-257
[25] = system: UACC-62
[26] = system: LOX IMVI
[27] = system: NCI-H226
[28] = system: SN12C
[29] = system: COLO 205
[30] = system: T47D
[31] = system: ACHN
[32] = system: TK-10
[33] = system: KM12
[34] = system: IGROV-1
[35] = system: A498
[36] = system: SK-OV-3
[37] = system: Malme-3M
[38] = system: SF-295
[39] = system: HT-29
[40] = system: 786-0
[41] = system: SK-MEL-28
[42] = system: SK-MEL-5
[43] = system: Hs-578T
[44] = system: SNB-75
[45] = system: MCF7
[46] = system: EKVX
[47] = system: UO-31
[48] = system: MDA-MB-435
[49] = system: CAKI-1
[50] = system: SW-620
[51] = system: NCI-H23
[52] = system: M14
[53] = system: NCI-H522
[54] = system: DU-145
[55] = system: CCRF-CEM
[56] = system: OVCAR-5
[57] = system: MOLT-4
[58] = system: HOP-92
[59] = system: MDA-N

## CN(C)CCn1c(CO)nc2c1c(=O)n(C)c(=O)n2C
[1]
  GI50: > 100 µM (inactive)
[2]
  GI50: > 100 µM (inactive)
[3]
  GI50: > 100 µM (inactive)
[4]
  GI50: > 100 µM (inactive)
[5]
  GI50: > 100 µM
[6]
  GI50: > 100 µM (inactive)
[7]
  GI50: > 100 µM (inactive)
[8]
  GI50: > 100 µM (inactive)
[9]
  GI50: > 100 µM (inactive)
[10]
  GI50: > 100 µM (inactive)
[11]
  GI50: > 100 µM (inactive)
[12]
  GI50: > 100 µM (inactive)
[13]
  GI50: > 100 µM (inactive)
[14]
  GI50: > 100 µM (inactive)
[15]
  GI50: > 100 µM (inactive)
[16]
  GI50: > 100 µM (inactive)
[17]
  GI50: > 100 µM (inactive)
[18]
  GI50: > 100 µM (inactive)
[19]
  GI50: > 100 µM (inactive)
[20]
  GI50: > 100 µM (inactive)
[21]
  GI50: > 100 µM (inactive)
[22]
  GI50: > 100 µM (inactive)
[23]
  GI50: > 100 µM (inactive)
[24]
  GI50: > 100 µM (inactive)
[25]
  GI50: > 100 µM (inactive)
[26]
  GI50: > 100 µM (inactive)
[27]
  GI50: > 100 µM (inactive)
[28]
  GI50: > 100 µM (inactive)
[29]
  GI50: > 100 µM (inactive)
[30]
  GI50: > 100 µM (inactive)
[31]
  GI50: > 100 µM (inactive)
[32]
  GI50: > 100 µM (inactive)
[33]
  GI50: > 100 µM (inactive)
[34]
  GI50: > 100 µM (inactive)
[35]
  GI50: > 100 µM (inactive)
[36]
  GI50: > 100 µM (inactive)
[37]
  GI50: > 100 µM (inactive)
[38]
  GI50: > 100 µM (inactive)
[39]
  GI50: > 100 µM (inactive)
[40]
  GI50: > 100 µM (inactive)
[41]
  GI50: > 100 µM (inactive)
[42]
  GI50: > 100 µM (inactive)
[43]
  GI50: > 100 µM (inactive)
[44]
  GI50: > 100 µM (inactive)
[45]
  GI50: > 100 µM (inactive)
[46]
  GI50: > 100 µM (inactive)
[47]
  GI50: > 100 µM (inactive)
[48]
  GI50: > 100 µM (inactive)
[49]
  GI50: > 100 µM (inactive)
[50]
  GI50: > 100 µM (inactive)
[51]
  GI50: > 100 µM (inactive)
[52]
  GI50: > 100 µM (inactive)
[53]
  GI50: > 100 µM (inactive)
[54]
  GI50: > 100 µM (inactive)
[55]
  GI50: > 100 µM (inactive)
[56]
  GI50: > 100 µM (inactive)

## CC1NC(/C(=C/c2ccccc2O)NC(=O)c2ccccc2)OC1=O (stereo not given)
[1]
  GI50: > 50 µM (inactive)
[57]
  GI50: > 50 µM (inactive)
[58]
  GI50: 11 µM (inactive)
[2]
  GI50: > 50 µM (inactive)
[3]
  GI50: > 50 µM (inactive)
[4]
  GI50: 11.5 µM (inactive)
[59]
  GI50: 4.05 µM (inactive)
[5]
  GI50: 34.1 µM
[7]
  GI50: 2.52 µM (inactive)
[8]
  GI50: 16.1 µM (inactive)
[9]
  GI50: 23.3 µM (inactive)
[10]
  GI50: > 50 µM (inactive)
[11]
  GI50: > 50 µM (inactive)
[12]
  GI50: > 50 µM (inactive)
[13]
  GI50: 30.7 µM (inactive)
[14]
  GI50: > 50 µM (inactive)
[15]
  GI50: > 50 µM (inactive)
[16]
  GI50: > 50 µM (inactive)
[17]
  GI50: > 50 µM (inactive)
[18]
  GI50: > 50 µM (inactive)
[19]
  GI50: > 50 µM (inactive)
[20]
  GI50: > 50 µM (inactive)
[23]
  GI50: > 50 µM (inactive)
[24]
  GI50: > 50 µM (inactive)
[25]
  GI50: > 50 µM (inactive)
[26]
  GI50: > 50 µM (inactive)
[27]
  GI50: > 50 µM (inactive)
[28]
  GI50: > 50 µM (inactive)
[29]
  GI50: > 50 µM (inactive)
[30]
  GI50: 27.7 µM (inactive)
[31]
  GI50: 22.4 µM (inactive)
[32]
  GI50: > 50 µM (inactive)
[33]
  GI50: 4.74 µM (inactive)
[34]
  GI50: 14 µM (inactive)
[35]
  GI50: > 50 µM (inactive)
[36]
  GI50: 48.2 µM (inactive)
[37]
  GI50: 9.31 µM (inactive)
[38]
  GI50: > 50 µM (inactive)
[39]
  GI50: > 50 µM (inactive)
[40]
  GI50: 16.3 µM (inactive)
[41]
  GI50: > 50 µM (inactive)
[42]
  GI50: 39.7 µM (inactive)
[44]
  GI50: 13.9 µM (inactive)
[45]
  GI50: 1.47 µM (inactive)
[46]
  GI50: 30.4 µM (inactive)
[47]
  GI50: > 50 µM (inactive)
[48]
  GI50: 28.8 µM (inactive)
[49]
  GI50: > 50 µM (inactive)
[50]
  GI50: > 50 µM (inactive)
[51]
  GI50: > 50 µM (inactive)
[52]
  GI50: > 50 µM (inactive)
[53]
  GI50: 24.2 µM (inactive)
[55]
  GI50: > 50 µM (inactive)
[56]
  GI50: > 50 µM (inactive)
